Experimental data as given in article PMC9964544, “Evidence of Insulin-Sensitizing and Mimetic Activity of the Sesquiterpene Quinone Avarone, a Protein Tyrosine Phosphatase 1B and Aldose Reductase Dual Targeting Agent from the Marine Sponge Dysidea avara” (Pharmaceutics, 2023).
“Also recorded” adds a separate entry of the source.

Key:
TC-PTP = molecular target: T1, TC-PTP (Homo sapiens, UniProt P17706); experiment: TC-PTP inhibition (IC50), specificity of avarone; format: biochemical
T1 sequence (P17706 1-415): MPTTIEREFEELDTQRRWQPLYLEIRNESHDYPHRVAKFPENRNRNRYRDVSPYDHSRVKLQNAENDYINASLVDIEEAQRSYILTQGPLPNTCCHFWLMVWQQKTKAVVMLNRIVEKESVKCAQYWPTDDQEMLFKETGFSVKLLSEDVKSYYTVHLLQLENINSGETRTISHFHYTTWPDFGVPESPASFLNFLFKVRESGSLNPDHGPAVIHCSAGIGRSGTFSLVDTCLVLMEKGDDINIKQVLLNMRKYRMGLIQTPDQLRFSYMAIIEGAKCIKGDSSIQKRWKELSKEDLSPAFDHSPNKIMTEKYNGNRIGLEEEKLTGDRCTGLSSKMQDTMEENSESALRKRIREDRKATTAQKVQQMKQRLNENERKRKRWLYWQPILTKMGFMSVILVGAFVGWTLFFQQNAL
Method: To evaluate the capacity of avarone to specifically target the PTP1B enzyme, we determined the IC50 value for TC-PTP, another member of the tyrosine phosphatase family (Figure S14). […] To confirm this hypothesis, the interaction mode of avarone with TC-PTP was analyzed by in silico docking analysis carried out using the crystallographic structure (7F5N) deposited in the PDB database.
Figure S13. Binding sites of avarone (2) identified by docking analyses. ( A), General view
of interaction sites of avarone on PTP1B surface. (B), detail showing the molecules of
avarone bound into the active site of PTP1B. The images were obtained using the UCSF
Figure S14. Determination of the IC50 values of avarone for PTP1B (A), and TC-PTP (B).

[1] = tested on: human leukemia monocytic cells (THP-1); parameters: method as in PMID 32075136; conditions: ref [19]; cited from earlier work
C2C12 cells = experiment: Glucose uptake assay (2-NBDG, flow cytometry) in C2C12 cells; format: cell-based; conditions: 30 min
Method: To evaluate the impact of avarone (2) on the insulin signaling pathway, C2C12 cells were plated on P35 dishes and grown until 70% confluence. Then, cells were washed with phosphate-buffered saline (PBS) and incubated for 24 h in the presence of a starvation medium (DMEM high glucose containing 2 mM glutamine, 100 U/mL of penicillin, and 100 μg/mL of streptomycin). After this time, cells were stimulated for 30 min with 10 nM insulin (Humulin R, Ely Lilly, Italy) with avarone (2) or the insulin-avarone combination. After this time, cells were washed with cold PBS and lysed using 100 µL of 1X Laemmli sample buffer solution (50 mM Tris-HCl pH 6.8, 2% SDS, 10% glycerol, 1% β-mercaptoethanol, 12.5 mM EDTA, 0.02% bromophenol blue). Cell proteins were withdrawn, transferred in an Eppendorf tube and boiled for 5 min. All samples were stored at −20 °C before the analysis. Analysis of samples was carried out using SDS-PAGE; after electrophoresis, proteins were transferred on a PVDF membrane by Western blot. Phosphorylation levels of the insulin receptor β chain and of the kinase Akt were evaluated using specific antibodies: IR β subunit, clone CT-3 (MABS65) was from Santa Cruz Biotechnology (Santa Cruz, CA, USA); pIR β subunit, Y1162/1163 (sc-25103-R) was from Merck-Millipore (Burlington, MA, USA). Akt (9272S) and p-Akt (9271S) antibodies were from Cell Signaling Technology (Danvers, MA, USA). Finally, β-actin and clone C-4 (sc-47778) were from Merck-Millipore (Burlington, MA, USA). Anti-rabbit and anti-mouse secondary antibodies were from Santa Cruz Biotechnology (Santa Cruz, CA, USA). Detection was performed using Clarity western ECL substrates (BioRad Laboratories, Inc. 1000 Alfred Nobel DriveHercules, CA, USA). Quantitation of the images obtained was carried out using iBright Analysis Software (Thermo Fisher Scientific 168 Third Avenue Waltham, MA, USA, 02451). Glucose uptake was evaluated as previously described. […] Intrinsic and 2-NBDG-derived cell fluorescences were determined using a flow cytometer (FACSCanto II, BD Biosciences, San Jose, CA, USA). […] Quantitative analysis was carried out using FlowJo software (FlowJo^TM v10. BD FlowJo™ Software for Windows Version 10. Ashland, OR: Becton, Dickinson and Company; 2021).
Figure 8 Glucose uptake assay. […] After, cells were washed with PBS, detached using trypsin, collected by centrifugation, and analyzed using a flow cytometer (FACSCanto II, BD Biosciences). […] For each experiment, 10,000 events were analyzed. […] (B) Quantitation of fluorescence levels. […]
Figure 9 Impact of cytochalasin B on avarone-induced glucose uptake. […] After, cells were washed and incubated for 3 h with 40 µM 2-NBDG and then analyzed using a flow cytometer (FACSCanto II, BD Biosciences). For each experiment, 10,000 events were analyzed. […]

Human PTP1B = molecular target: T2, Human PTP1B (Homo sapiens, UniProt P18031); experiment: Kinetic analysis of PTP1B inhibition (Lineweaver-Burk plot, KM,app fit, dilution assay); conditions: for Ki: fit of KM,app against avarone concentration, Equation (3)
T2 sequence (P18031 1-302): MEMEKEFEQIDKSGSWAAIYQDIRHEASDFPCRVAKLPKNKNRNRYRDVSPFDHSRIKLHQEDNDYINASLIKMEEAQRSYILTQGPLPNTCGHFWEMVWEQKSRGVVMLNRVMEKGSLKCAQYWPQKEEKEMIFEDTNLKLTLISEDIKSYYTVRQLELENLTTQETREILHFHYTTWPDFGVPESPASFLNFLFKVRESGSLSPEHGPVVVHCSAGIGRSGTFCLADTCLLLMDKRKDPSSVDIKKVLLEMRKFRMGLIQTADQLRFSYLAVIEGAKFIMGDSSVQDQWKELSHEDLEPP
Method: Equation (2) refers to a general case of a tight binding non-competitive inhibition model. […] The mechanism of action of avarone was evaluated by analyzing the effect of increasing avarone concentrations on the main kinetic parameters (KM and Vmax) of PTP1B. Data obtained were analyzed using the Lineweaver–Burk plot. The value of Ki was determined using the appropriate equations.
The second inhibitor molecule (IB) can only bind to EIA, generating the ternary complex (EIAIB). Considering the prevailing rapid equilibrium conditions, it was possible to derive Equation (3), which describes the dependence of KM on the avarone concentration. […] (3) KM,app=KM×{1+[I]/KiA+[I]^2/KiA×KiB}
Figure 4 Impact of avarone on PTP1B-catalyzed hydrolysis of pNPP: the Lineweaver–Burk plot. Data reported in the figure were obtained by measuring the initial hydrolysis rate of pNPP at seven different concentrations, in the presence of increasing concentration of avarone. The concentrations of avarone used were: 0 µM, (●); 4 µM, (☐); 5.5 µM, (▲); 7 µM (▽). Each test was carried out in triplicate. Data reported in the figure represent the mean value ± SD.
Figure 5 Determination of KiA and KiB for avarone. Dependence of KM,app from the avarone concentration. Data obtained were fitted using Equation (3). Data fitting was obtained using OriginPlus 2021 software.
Dilution assay. An aliquot of PTP1B was incubated for 1 h at 37°C in the
presence of saturating concentration (50 µM) of avarone (2). A control test was prepared
diluting PTP1B solution with the same volume of DMSO, the solvent used to dissolve 2.
After 1 h, an aliquot of samples was withdrawn and diluted 400 fold in buffer assay to
evaluate the residual activity of the enzyme. All tes ts were carried out in triplicate. Data
obtained were normalized respect to control sample.
Dependence of K M and Vmax from avarone (2) concentration. The concentration
of avarone used were: 0, 4.0, 5.5, and 7.0 µM. To calculate both K M and Vmax valued, we
determined the initial hydrolysis rate at seven different substrate (pNPP) concentrations
(0.5, 1, 2 4, 8 16 , 25 mM). Experimental data were fitted with Michaelis -Menten equation
using OriginPro 2021 software

IC50 (TC-PTP): 39.2 µM
affinity for TC-PTP lower than that for PTP1B (TC-PTP; ratio of IC50 values TC-PTP / PTP1B): 5.8 fold
reversibility of PTP1B inhibition (dilution assay) (Human PTP1B; 50 µM avarone, 1 h at 37°C, diluted 400 fold): reversible inhibitor
Ki (Human PTP1B; KiA PTP1B (first inhibitor molecule)): 15.1 ± 1.4 µM
Ki (Human PTP1B; KiB PTP1B (second inhibitor molecule, binds EIA)): 1 ± 0.1 µM
SMILES: CC1=CCC[C@H]2[C@](C)(CC3=CC(=O)C=CC3=O)[C@@H](C)CC[C@]12C [avarone (2), avarone]
cytotoxicity THP-1 [1]: not cytotoxic
glucose uptake (2-NBDG fluorescence), insulin-avarone combination (C2C12 cells; 25 µM avarone + 10 nM insulin, versus insulin alone): significantly increase
glucose uptake (2-NBDG fluorescence) (C2C12 cells; 25 µM avarone alone, then 40 µM 2-NBDG 3 h): higher amounts of fluorescent glucose; also recorded: stimulates glucose uptake more efficiently than insulin itself
type of PTP1B inhibition (Human PTP1B; pNPP, 0-7 µM avarone, double reciprocal plot): competitive inhibitor; also recorded: cooperative pure competitive inhibition by two non-exclusive inhibitor molecules
